Results reported in patent US5138069A (E. I. Du Pont de Nemours and Company, priority 1988, dated 1992).

Test system: Renal Hypertensive Rats
Assay: Antihypertensive effects in renal hypertensive rats
Type: in vivo
Conditions: Rattus norvegicus; for minimal effective dose at 10 mg/kg / minimal effective dose at 100 mg/kg: Table 25; for minimal effective dose at 10 mg/kg / minimal effective dose at 3 mg/kg: intravenous; for minimal effective dose at 10 mg/kg: 10 mg/kg or less; for minimal effective dose at 100 mg/kg / minimal effective dose at 30 mg/kg: oral; for minimal effective dose at 100 mg/kg: 100 mg/kg or less; for minimal effective dose at 3 mg/kg / minimal effective dose at 30 mg/kg: Table 26
Description: This procedure increases blood pressure by increasing renin production with consequent elevation of AII levels. Compounds are administered orally at 100 mg/kg and/or intravenously via a cannula in the jugular vein at 10 mg/kg. Arterial blood pressure is continuously measured directly through a carotid artery cannula and recorded using a pressure transducer and a polygraph. Blood pressure levels after treatment are compared to pretreatment levels to determine the antihypertensive effects of the compounds (See Table 25).
Compounds listed in Table 26 were tested in the same manner as described for Table 25, except that in the test for antihypertensive effects in renal hypertensive rats, the compounds were administered orally at 30 mg/kg and intravenously at 3 mg/kg.

Row | SMILES | minimal effective dose at 10 mg/kg | minimal effective dose at 100 mg/kg | further results
1 | CCCCc1nc(Cl)c(CO)n1Cc1ccc(-c2occc2C(=O)O)cc1 (single isomer, unassigned) [Example 178, 2-n-Butyl-1-[4-(3-carboxyfuran-2-yl)benzyl]-4-chloro-5-(hydroxymethyl)imidazole] | < 10 mg/kg | < 100 mg/kg | –
2 | CCCCc1nc(Cl)c(CC(=O)O)n1Cc1ccc(C(=O)O)cc1 [Example 1, 2-Butyl-1-(4-carboxybenzyl)-4-chloroimidazole-5-acetic acid] | < 10 mg/kg | > 100 mg/kg | –
3 | CCCCc1nc(Cl)c(CC(=O)OC)n1Cc1ccc(NC(=O)c2ccccc2C(=O)O)cc1 [Example 2, Methyl 2-butyl-1-[4-(2-carboxybenzamido)benzyl]-4-chloroimidazole-5-acetate] | – | – | minimal effective dose at 10 mg/kg (tested as sodium salt): < 10 mg/kg; minimal effective dose at 100 mg/kg (tested as sodium salt): > 100 mg/kg
4 | CCCCc1nc(Cl)c(COC)n1Cc1ccc(NC(=O)c2ccccc2C(=O)O)cc1 [Example 4, 2-Butyl-1-[4-(2-carboxybenzamido)benzyl]-4-chloro-5-(methoxymethyl)-imidazole] | – | – | minimal effective dose at 10 mg/kg (tested as sodium salt): < 10 mg/kg; minimal effective dose at 100 mg/kg (tested as sodium salt): > 100 mg/kg
5 | CCCCc1nc(Cl)c(CC(=O)OC)n1Cc1ccc(NC(=O)c2c(F)c(F)c(F)c(F)c2C(=O)O)cc1 [Example 8] | – | – | minimal effective dose at 100 mg/kg (tested as sodium salt): > 100 mg/kg
6 | CCCCc1nc(Cl)c(COC)n1Cc1ccc(NC(=O)c2c(Cl)ccc(Cl)c2C(=O)O)cc1 [Example 17] | – | – | minimal effective dose at 10 mg/kg (tested as sodium salt): < 10 mg/kg; minimal effective dose at 100 mg/kg (tested as sodium salt): > 100 mg/kg
7 | CCCCc1nc(Cl)c(COC)n1Cc1ccc(NC(=O)c2ccccc2S(=O)(=O)O)cc1 [Example 18a] | – | – | minimal effective dose at 3 mg/kg: < 3 mg/kg; minimal effective dose at 30 mg/kg: < 30 mg/kg
8 | CCCCc1nc(Cl)c(CO)n1Cc1ccc(-c2cccc(C(=O)O)c2)cc1 [Example 85, 1-[(3'-Carboxybiphenyl-4-yl)-methyl]-2-butyl-4-chloro-5-hydroxymethylimidazole] | < 10 mg/kg | < 100 mg/kg | –
9 | CCCCc1nc(Cl)c(COC)n1Cc1ccc(-c2cccc(C(=O)O)c2)cc1 [Example 86, 1-[(3'-Carboxybiphenyl-4-yl)-methyl]-2-butyl-4-chloro-5-methoxymethylimidazole] | < 10 mg/kg | > 100 mg/kg | –
10 | CCCCc1nc(Cl)c(CO)n1Cc1ccc(-c2ccccc2-c2nnn[nH]2)cc1 [Example 89, 2-n-butyl-4-chloro-5-hydroxymethyl-1-[(2'-(1H-tetrazol-5-yl)biphenyl-4-yl)methyl]imidazole] | < 10 mg/kg | < 100 mg/kg | –
11 | CCCCc1nc(C(F)(F)F)c(CO)n1Cc1ccc(-c2ccccc2-c2nnn[nH]2)cc1 [Example 92B, 2-butyl-5-hydroxymethyl-1-[(2'-(1H-tetrazol-5-yl)biphenyl-4-yl)methyl]-4-trifluoromethylimidazole] | – | – | minimal effective dose at 3 mg/kg: < 3 mg/kg
12 | CCCSc1ncc(CO)n1Cc1ccc(-c2ccccc2C(=O)O)cc1 [Example 93, 1-[(2'-carboxybiphenyl-4-yl)-methyl]-2-propylthio-5-hydroxymethylimidazole] | < 10 mg/kg | > 100 mg/kg | –
13 | CCCCc1nc(Cl)c(COC)n1Cc1ccc(-c2ccccc2C(=O)O)cc1 [Example 98] | – | – | minimal effective dose at 10 mg/kg (tested as sodium salt): < 10 mg/kg; minimal effective dose at 100 mg/kg (tested as sodium salt): < 100 mg/kg
14 | CCCCCCc1nc(Cl)c(CO)n1Cc1ccc(-c2ccccc2C(=O)O)cc1 [Example 110] | < 10 mg/kg | < 100 mg/kg | –
15 | CCCCc1nc(Cl)c(COC(C)=O)n1Cc1ccc(-c2ccccc2C(=O)O)cc1 [Example 121] | < 10 mg/kg | < 100 mg/kg | –
16 | CCCCc1nc(Br)c(CO)n1Cc1ccc(-c2ccccc2-c2nn[nH]n2)cc1 [Example 124C] | – | – | minimal effective dose at 3 mg/kg: < 3 mg/kg; minimal effective dose at 30 mg/kg: < 30 mg/kg
17 | CCCCc1nc(I)c(CO)n1Cc1ccc(-c2ccccc2-c2nnn[nH]2)cc1 [Example 124L] | – | – | minimal effective dose at 3 mg/kg: < 3 mg/kg; minimal effective dose at 30 mg/kg: < 30 mg/kg
18 | CCCCc1nc(Cl)c(C=O)n1Cc1ccc(-c2ccccc2C(=O)O)cc1 [Example 125, 1-[(2'-carboxybiphenyl-4-yl)methyl]-2-butyl-4-chloroimidazole-5-carboxaldehyde] | < 10 mg/kg | < 100 mg/kg | –
19 | CC/C=C/c1nc(Cl)c(CO)n1Cc1ccc(-c2ccccc2C(=O)O)cc1 [Example 128, 1-[(2'-Carboxybiphenyl-4-yl)-methyl]-2-(1-trans-butenyl)-4-chloro-5-hydroxymethylimidazole] | < 10 mg/kg | < 100 mg/kg | –
20 | CC/C=C/c1nc(Cl)c(C=O)n1Cc1ccc(-c2ccccc2C(=O)O)cc1 [Example 129, 1-[(2'-Carboxybiphenyl-4-yl)methyl]-2-(1-trans-butenyl)-4-chloroimidazole-5-carboxaldehyde] | < 10 mg/kg | < 100 mg/kg | –

Row | SMILES | minimal effective dose at 10 mg/kg | minimal effective dose at 100 mg/kg | further results
21 | CCCc1nc(C(F)(F)C(F)(F)F)c(C=O)n1Cc1ccc(-c2ccccc2-c2nnn[nH]2)cc1 [Example 140G] | – | – | minimal effective dose at 30 mg/kg: < 30 mg/kg
22 | CCCCc1nc(Cl)c(COC)n1Cc1ccc(-c2ccccc2NS(=O)(=O)C(F)(F)F)cc1 [Example 141, 1-[(2'-trifluoromethanesulfonamidobiphenyl-4-yl)methyl]-2-butyl-4-chloro-5-methoxymethylimidazole] | < 10 mg/kg | < 100 mg/kg | –
23 | CCCCc1nc(Cl)c(CO)n1Cc1ccc(-c2ccccc2NS(=O)(=O)C(F)(F)F)cc1 [Example 144] | < 10 mg/kg | < 100 mg/kg | –
24 | CCCCc1nc(Cl)c(COC)n1Cc1ccc(-c2ccccc2C(=O)Nc2nnn[nH]2)cc1 [Example 173, 2-n-Butyl-4-chloro-5-methoxymethyl-1-[(2'-((tetrazol-5-yl)aminocarbonyl)biphenyl-4-yl)-methyl]imidazole] | – | – | minimal effective dose at 10 mg/kg (tested as sodium salt): < 10 mg/kg
25 | CCCCc1nc(Cl)c(CO)n1Cc1ccc(-c2ccccc2C(=O)NOC)cc1 [Example 180, 1-[(2'-Methoxyaminocarbonylbiphenyl-4-yl)methyl]-2-butyl-4-chloro-5-hydroxymethylimidazole] | < 10 mg/kg | > 100 mg/kg | –
26 | CCCCc1nc(Cl)c(CO)n1Cc1ccc(-c2ccccc2NC(=O)C(F)(F)F)cc1 [Example 183, 1-[(2'-Trifluoroacetamidobiphenyl-4-yl)methyl]-2-butyl-4-chloro-5-hydroxymethylimidazole] | < 10 mg/kg | > 100 mg/kg | –
27 | CCCCc1nc(Cl)c(CO)n1Cc1ccc(Oc2ccccc2C(=O)O)cc1 [Example 184, 2-Butyl-4-chloro-1-[4-(2-carboxyphenoxy)benzyl]-5-hydroxymethylimidazole] | < 10 mg/kg | > 100 mg/kg | –
28 | CCCCc1nc(Cl)c(CO)n1Cc1ccc(Sc2ccccc2C(=O)O)cc1 [Example 185] | < 10 mg/kg | > 100 mg/kg | –
29 | CCCCc1ncc(CO)n1Cc1ccc(OCc2ccccc2C(=O)O)cc1 [Example 193, 1-[4-(2-Carboxybenzyloxy)-benzyl] -2-butyl-5-hydroxymethylimidazole] | < 10 mg/kg | > 100 mg/kg | –
30 | CCCCc1nc(Cl)c(CO)n1Cc1ccc(OCc2ccccc2C(=O)O)cc1 [Example 195] | < 10 mg/kg | < 100 mg/kg | –
31 | CCCCc1nc(Cl)c(COC(C)=O)n1Cc1ccc(OCc2ccccc2C(=O)O)cc1 [Example 199] | – | > 100 mg/kg | –
32 | CCCCc1nc(Cl)c(CO)n1Cc1ccc(C(=O)c2ccccc2C(=O)O)cc1 [Example 202, 2-Butyl-1-[4-(2-Carboxybenzoyl)benzyl]-4-chloro-5-(hydroxymethyl)imidazole] | – | – | minimal effective dose at 10 mg/kg (tested as sodium salt): < 10 mg/kg; minimal effective dose at 100 mg/kg (tested as sodium salt): > 100 mg/kg
33 | CCCCc1nc(CO)c(Cl)n1Cc1ccc(C(=O)c2ccccc2C(=O)O)cc1 [Example 203] | – | – | minimal effective dose at 10 mg/kg (tested as sodium salt): < 10 mg/kg; minimal effective dose at 100 mg/kg (tested as sodium salt): < 100 mg/kg
34 | CCCCc1nc(Cl)c(COC)n1Cc1ccc(C(=O)c2ccccc2C(=O)O)cc1 [Example 207] | – | – | minimal effective dose at 10 mg/kg (tested as sodium salt): < 10 mg/kg; minimal effective dose at 100 mg/kg (tested as sodium salt): < 100 mg/kg
35 | CCCCc1nc(Cl)c(C(=O)O)n1Cc1ccc(-c2ccccc2-c2nn[nH]n2)cc1 [Example 252] | – | – | minimal effective dose at 3 mg/kg: < 3 mg/kg; minimal effective dose at 30 mg/kg: < 30 mg/kg
36 | CCCc1nc(C(F)(F)C(F)(F)F)c(C(=O)O)n1Cc1ccc(-c2ccccc2-c2nn[nH]n2)cc1 [Example 265C] | – | – | minimal effective dose at 3 mg/kg: < 3 mg/kg
37 | CCCCc1nc(Cl)c(CO)n1Cc1ccc(-c2ccccc2C(=O)NS(=O)(=O)c2ccccc2)cc1 [Example 318, 1-[(2'-(Benzenesulfonamidocarbonyl)biphenyl-4-yl)methyl]-2-butyl-4-chloro-5-hydroxymethylimidazole] | < 10 mg/kg | > 100 mg/kg | –
38 | CCCc1nc(-c2ccccc2)c(C=O)n1Cc1ccc(-c2ccccc2C(=O)O)cc1 [Example 322] | – | – | minimal effective dose at 3 mg/kg: < 3 mg/kg; minimal effective dose at 30 mg/kg: < 30 mg/kg
39 | CCCCc1nc(CO)c(Cl)n1Cc1ccc(-c2ccccc2-c2n[nH]c(C(F)(F)F)n2)cc1 [Example 341, 2-n-Butyl-5-chloro-4-hydroxy-methyl-1-[(2'-(5-trifluoromethyl-1,2,4-triazol-3-yl)biphenyl-4-yl)methyl]imidazole] | < 10 mg/kg | < 100 mg/kg | –
